≈ marks a conversion by molar mass, not a printed value.
How the values were obtained:
[1] = format: cell-based; details: test concentration not given
Procedure: The human monocytic cell line U937 and the human type II alveolar epithelial carcinoma cell line A549 were obtained from the American Type Culture Collection (ATCC, Rockville, Md.). PBMCs from COPD patients were obtained in Brompton hospital and separated by AccuSPIN (Sigma-Aldrich, Poole, UK). Cells were cultured in complete growth medium (Sigma-Aldrich) (RPMI 1640 for U937, PBMCs, and Dulbecco's modified essential medium (DMEM) for A549) supplemented with 10% fetal bovine serum (FBS) and 1% L-glutamine at 37° C. in a humidified atmosphere with 5% CO2. U937 were differentiated into an adherent macrophage-like morphology by exposure to PMA (50 or 100 ng/ml) for 48 hrs in complete growth medium. Cell viability was assessed microscopically by trypan blue staining. Cell toxicity was determined by MTT assay as needed. This study was approved by the ethics committee of the Royal Brompton Hospitals, and all subjects gave written informed consent.

[2] = system: MMP9; assay: PMA-induced MMP9 expression in U937 cells (gelatin zymography); format: cell-based, human; details: test concentration not given; bracketed second value not explained
Procedure: Zymography. MMP9 enzyme activity is measured by gelatin zymography. 5 μl of supernatants were diluted with 5 μl Laemli sample buffer (Bio-Rad) and are loaded on a Novex® 10% Zymogram (Gelatin) gel (Invitrogen). After electrophoresis (90 min, 125 V, 35 mA, 5 W) gels are incubated with 1× Novex® zymogram renaturing buffer (Invitrogen) for 30 min at room temperature with gentle agitation. Gels are then rinsed in 1× Novex® zymogram developing buffer (Invitrogen) for 30 min at room temperature with gentle agitation prior to overnight incubation in the developing buffer at 37° C. After incubation the gels are stained using the colloidal blue staining kit (Invitrogen) with buffer containing 20% methanol and 70% distilled water to visualize the zymogen bands. Relevant band intensities are quantified by densitometric analysis using the UVP GelDoc-It system.
Effects of compounds on PMA-induced MMP9 expression in U937 cells. U937 cells are pretreated with compounds described herein for 1 hr, followed by PMA (50 ng/ml) treatment for 48 hrs. After 48 hrs supernatants are collected for zymography. MMP9 enzyme activity is measured by gelatin zymography. Data are expressed as fold changes against positive control treated with PMA only. Values represent means of three experiments±SEM.

[3] = system: H. influenzae ATCC 49247; assay: MIC; format: cell-based
[4] = system: TNFα; assay: LPS-induced TNFα release in PMA-differentiated U937 cells (ELISA); format: cell-based, human; details: for TNFα inhibition (%): test concentration not given
Procedure: (§1) Cytokine ELISA. LPS-induced IL-8, TNFα concentrations and TNFα-induced IL-8 concentrations are determined by sandwich ELISA according to the manufacturer's instructions (R&D Systems Europe). IC50 values for dexamethasone on IL-8 production are calculated using the computer program Prism 4.0 (GraphPad Software Inc., San Diego, Calif.) as a marker for steroid sensitivity.
(§2) Effects of compounds on LPS-induced IL-8 and TNFα release in PMA-differentiated U937 cells. PMA-differentiated macrophage-like cells are pretreated with compounds described herein for 1 hr, followed by LPS (100 ng/ml) stimulation for 4 hrs. LPS-induced IL-8 and TNFα release is evaluated by ELISA. Values represent means of three experiments±SEM.

[5] = system: IL-8; assay: LPS-induced IL-8 release in PMA-differentiated U937 cells (ELISA); format: cell-based, human; details: for IL-8 inhibition (%): test concentration not given
Procedure: as §1, §2

[6] = system: HDAC activity; assay: H2O2-induced reduction of HDAC activity in PMA-differentiated U937 cells; format: cell-based, human; details: for restoration of H2O2-reduced HDAC activity (%): test concentration not given, bracketed second value not explained
Procedure: In cell HDAC assay. Cells are incubated with Fluor de Lys™ substrate for 1 hr before lyses. Total HDAC activity from whole cell extracts is measured using the HDAC Fluorimetric Assay/Drug Discovery Kit (BIOMOL® International, Inc., Plymouth Meeting, Pa.).
HDAC expression: In cell HDAC activity assay: U937 is differentiated to macrophage type cells by PMA for 3 days. HDAC fluorescent substrate (Biomol) is added before exposure of oxidative stress (H2O2, 200 μM) or Tobacco smoke conditioned medium for 4 hrs. HDAC activity is measured (Biomol kit). Compounds at different concentrations are treated 20 min before oxidative stress treatment.
PMA-differentiated macrophage-like cells are pretreated with compounds described herein for 20 min. After H2O2 (200 μM) stimulation for 4 hrs, HDAC activity is assayed. Data are expressed as fold changes against positive control treated with H2O2 only. Values represent means of four experiments±SEM.

[7] = system: S. pneumoniae ATCC 49619; assay: MIC; format: cell-based
[8] = system: S. aureus ATCC 29213 (MSSA) MLS-S; assay: MIC; format: cell-based
[9] = system: N. gonorrhoeae ATCC 49226; assay: MIC; format: cell-based; set-up: unit not given beside the values
[10] = system: S. pyogenes ATCC 19615; assay: MIC; format: cell-based; details: in µg/mL
[11] = system: S. typhimurium ATCC 14028; assay: MIC; format: cell-based; details: in µg/mL
[12] = system: P. aeruginosa ATCC 27853; assay: MIC; format: cell-based
[13] = system: S. aureus MRSA 33591; assay: MIC; format: cell-based
[14] = system: E. coli ATCC 25922; assay: MIC; format: cell-based; details: in µg/mL
[15] = system: E. faecium ATCC 19434; assay: MIC; format: cell-based
[16] = system: K. pneumonia 13883; assay: MIC; format: cell-based; details: in µg/mL
[17] = system: Akt; assay: H2O2-induced phosphorylation of Akt in PMA-differentiated U937 cells (western blot); format: cell-based, human; details: PMA-differentiated U937; H2O2 1 mM 30 min
Procedure: Cell Lysis and Western Blotting. Whole cell protein extracts are prepared using modified RIPA buffer (50 mM Tris HCL pH 7.4, 0.5% NP-40, 0.25% Na-deoxycholate, 150 mM NaCl with freshly added complete protease (Roche). Phosphatase inhibitor (Active Motif) is also added when required. Protein concentration is determined using the Bio-Rad Protein Assay (Bio-Rad). Proteins are separated by SDS-PAGE under denaturing conditions, and electrotransferred to a nitrocellulose membrane (Amersham Biosciences, Amersham, U.K.) (Western blotting). The membranes are blocked in TBS containing 0.05% Tween 20 and 5% non-fat dried milk, and then incubated with anti-pAkt or Akt antibody followed by an horse radish peroxidase-conjugated secondary antibody (Dako UK Ltd., Ely, UK). Bound antibodies are visualized by ECL Plus (GE Healthcare UK Ltd., Little Chalfont, UK). The band density is calculated by densitometry (UVP Bioimaging Systems, Cambridge, UK) using Labworks software (Ultra-Violet Products, Cambridge, UK).
Effects of compounds on H2O2-induced phosphorylation of Akt in PMA-differentiated U937 cells. PMA-differentiated macrophage-like cells are pretreated with compounds described herein for 20 min. After H2O2 (1 mM) stimulation for 30 min, cells are lysed. Phosphorylation levels of Akt are measured by western blot. Data are calculated relative to total protein, and expressed as fold changes against positive control treated with H2O2 only. Values represent means of three or four experiments±SEM.

CCC1OC(=O)C(C)C(OC2CC(C)(OC)C(OC(C)=O)C(C)O2)C(C)C(OC2OC(C)CC(N(C)C)C2O)C(C)(OC)CC(C)C(=O)C(C)C2N(CCCCn3cc(CN(C)C)nn3)C(=O)OC12C (centres unmarked) [Example 24]
Cell Toxicity (% cell death) [1]: −3% | MMP9 inhibition (%) [2]: 11% | MIC H. influenzae ATCC 49247 [3]: 64 µg/mL (≈ 64.3 µM) | TNFα inhibition (%) [4]: 6% | IL-8 inhibition (%) [5]: 60% | restoration of H2O2-reduced HDAC activity (%) [6]: 85%

CCC1OC(=O)C(C)C(OC2CC(C)(OC)C(OC(C)=O)C(C)O2)C(C)C(OC2OC(C)CC(N(C)C)C2O)C(C)(OC)CC(C)C(=O)C(C)C2N(CCCCn3cc(CO)nn3)C(=O)OC12C (centres unmarked) [Example 25]
Cell Toxicity (% cell death) [1]: −8% | MMP9 inhibition (%) [2]: 10% | MIC H. influenzae ATCC 49247 [3]: 4 µg/mL (≈ 4.13 µM) | TNFα inhibition (%) [4]: 15% | IL-8 inhibition (%) [5]: 26% | restoration of H2O2-reduced HDAC activity (%) [6]: 72 (63) %

CCC1OC(=O)C(C)C(OC2CC(C)(OC)C(O)C(C)O2)C(C)C(OC2OC(C)CC(N(C)C)C2O)C(C)(O)CC(C)CN(C)C(C)C2OC(=O)OC12C (centres unmarked) [Example 42]
MIC S. pneumoniae ATCC 49619 [7]: ≤ 0.125 µg/mL | MIC S. aureus ATCC 29213 (MSSA) MLS-S [8]: 1 µg/mL (≈ 1.29 µM) | MIC N. gonorrhoeae ATCC 49226 [9]: ≤0.125 | Cell Toxicity (% cell death) [1]: −8% | MIC S. pyogenes ATCC 19615 [10]: ≤0.125 | MIC S. typhimurium ATCC 14028 [11]: 8-16 | MMP9 inhibition (%) [2]: −2% | MIC H. influenzae ATCC 49247 [3]: 4 µg/mL (≈ 5.16 µM) | MIC P. aeruginosa ATCC 27853 [12]: > 64 µg/mL | MIC S. aureus MRSA 33591 [13]: > 64 µg/mL | MIC E. coli ATCC 25922 [14]: 8-32 | MIC E. faecium ATCC 19434 [15]: 8 µg/mL (≈ 10.3 µM) | TNFα inhibition (%) [4]: 8% | IL-8 inhibition (%) [5]: −27% | restoration of H2O2-reduced HDAC activity (%) [6]: 104 (79) % | MIC K. pneumonia 13883 [16]: 8-32

CC[C@H]1OC(=O)[C@H](C)C(=O)[C@H](C)[C@@H](O[C@@H]2O[C@H](C)C[C@H](N(C)C)[C@H]2O)[C@](C)(OC)C[C@@H](C)C(=O)[C@H](C)[C@H]2N(CCCCn3cnc(-c4cccnc4)c3)C(=O)O[C@]12C [TEL, telithromycin, reference compound]
IC50 ([4]; Homo sapiens, U-937, LPS-induced TNFα release, PMA-differentiated U937, NA = inactive): 231 ± 37 µM | inhibition of LPS-induced TNFα release compared with Example 33 ([4]; LPS 100 ng/ml 4 hrs): at higher concentrations than Example 33 | inhibition of LPS-induced IL-8 release compared with Example 33 ([5]; LPS 100 ng/ml 4 hrs): did not show any inhibition at any concentration tested | restoration of HDAC activity compared with Example 33 ([6]; PMA-differentiated U937, H2O2 200 μM 4 hrs): only at much higher doses than Example 33 | HDAC activity reached compared with untreated controls ([6]; PMA-differentiated U937, H2O2 200 μM, comparators at highest doses tested): only restore HDAC activity to levels comparable to untreated controls | inhibition of Akt phosphorylation compared with Example 33 [17]: only at much higher concentrations than Example 33

CC[C@H]1OC(=O)[C@H](C)C(=O)[C@H](C)[C@@H](O[C@@H]2O[C@H](C)C[C@H](N(C)C)[C@H]2O)[C@@](C)(OC)C[C@@H](C)CN(C(=O)CCCn2cc(-c3ccc(Br)cc3)nn2)[C@H](C)[C@@H](O)[C@]1(C)O [Example 41]
MIC S. pneumoniae ATCC 49619 [7]: 32 µg/mL (≈ 36.3 µM) | MIC S. aureus ATCC 29213 (MSSA) MLS-S [8]: 64 µg/mL (≈ 72.7 µM) | MIC N. gonorrhoeae ATCC 49226 [9]: 64 | Cell Toxicity (% cell death) [1]: 8% | MIC S. pyogenes ATCC 19615 [10]: 64 | MIC S. typhimurium ATCC 14028 [11]: >64 | MMP9 inhibition (%) [2]: 39 (41) % | MIC H. influenzae ATCC 49247 [3]: > 64 µg/mL | MIC P. aeruginosa ATCC 27853 [12]: > 64 µg/mL | MIC S. aureus MRSA 33591 [13]: > 64 µg/mL | MIC E. coli ATCC 25922 [14]: >64 | MIC E. faecium ATCC 19434 [15]: 64 µg/mL (≈ 72.7 µM) | TNFα inhibition (%) [4]: 45% | IL-8 inhibition (%) [5]: 54% | restoration of H2O2-reduced HDAC activity (%) [6]: 14% | MIC K. pneumonia 13883 [16]: >64

Source: patent US9937194B1, “Compounds and methods for treating inflammatory diseases” (priority 2009, dated 2018)
